Read-outs that look alike come from different tables or passages of the source.

The values below come from patent publication US20220096664A1, “STABILIZED FORMULATIONS CONTAINING IODINATED CONTRAST AGENTS AND CYCLODEXTRINS” (Verrow Pharmaceuticals, Inc., priority 2012, published 2022).

Data set [1] is classed as physicochemical. How it is done: (§1) The lamps were switched on and the solutions irradiated for 18 to 24 hours for the ultraviolet (UV) lamps or 72 to 90 hours for the visible (VIS) light lamps. At the end of the selected irradiation time, the cuvettes were removed from the photolysis chamber and mixed by inversion 2-times. The caps were then removed and 40 microliter aliquots taken and diluted with 1 mL of an aqueous solution containing ˜0.9 mg/mL sodium thiosulfate. The thiosulfate solution converted any I2, IO3^−, and I3^− present in the solution tor such that total iodine species could be determined in one assay.
(§2) The diluted solutions were assayed by high pressure liquid chromatography (HPLC) using a 4.6×250 mm, C-18, 5 micron particle size, reversed phase column with detection at 280 nm for the contrast agent and 230 nm for the thiosulfate and the iodide ion (r). A mobile phase of 30:70 methanol:aqueous buffer (50 mM KH2PO4+7 mL/L 40% tetrabutyl ammonium hydroxide) at 0.75 mL/min was used for elution. Injection volume was 20 microliters. External standards were prepared containing each contrast agent, potassium iodide, and sodium thiosulfate solution and analyzed along with the irradiated samples. The results were reported as weight percentage iodide formed (mg iodide/mg contrast agent times 100).
(§3) Aqueous solutions were prepared containing 50 mM iodinated contrast agent, 10 mM tromethamine HCl buffer (TRIS), with and without sulfobutylether beta-cyclodextrin with an average degree of substitution-7 (SBE7-β-CD), or 2-hydroxypropyl beta-cyclodextrin with an average degree of substitution of ˜6.3 (HP6.3-β-CD) or ˜4.3 (HP4.3-β-CD). The iohexol solution was prepared by dissolving solid iohexol powder while the other solutions were prepared by diluting commercial formulated products and adding sufficient TRIS buffer to reach 10 mM. The pH of the solutions was adjusted to 7.4 with 0.1N hydrochloric acid.
Aliquots of the solutions were irradiated with visible light for 72 hours (0.52 million lux hours). Other aliquots were autoclaved for 20 minutes at 121° C., cooled to room temperature and then irradiated with ultraviolet light for 18 hours (119 watt hours/m2). The solutions were then processed, analyzed and reported as in Example 2, except that the chromatographic peaks of the contrast agents were evaluated at 300 nm for both samples and standards. […]
Aqueous formulations were prepared containing iodinated contrast agents at concentrations used commercially in medical procedures. Sulfobutylether-cyclodextrin, sodium salt, average degree of substitution ˜7 (SBE7CD) was added at varying agent:CD mole ratios. The formulations were placed in glass vials, sealed with rubber stoppers and aluminum crimps, and autoclaved at 121° C. for 20 minutes. Aliquots of the autoclaved solutions were exposed to UV light for 24 hours (159 watt hours/m^2 or VIS light for 72 hours (0.52 million lux hours) as in Example 2. The solutions were then processed, analyzed and reported as in Example 2, with the following two exceptions; 1) the chromatographic peaks of the contrast agents were evaluated at 300 nm for both samples and standards, and 2) only 20 microliter sample aliquots were taken and diluted for HPLC analysis due to the higher concentrations used in this study. Results of the study are presented in the table below along with the solution compositions.

Data set [2] in a line: Photostability: iodide formed after visible light irradiation. To be noted: 10 mM TRIS; for Iodide formed: 50 mM agent, pH 7.4, VIS 72 h. Type of data set: physicochemical. The protocol:
(§4) Aqueous solutions comprising iodinated contrast agents were prepared and evaluated in a photolysis chamber as described in the ICH guidance document, Q1B Photostability Testing of New Drug Substances and Products, available from the US Food and Drug Administration, incorporated herein by reference. The solutions were placed in 1 cm×1 cm (3 mL) quartz cuvettes having 2 clear sides and 2 sides etched. Lids were placed on the cuvettes and sealed with a wrap of Parafilm® around the joint. The cuvettes were placed in a photolysis chamber, upright on a flat surface beneath and centered between two horizontal 24 inch fluorescent lamps, (GE, black light F20T12, 20 watt for ultraviolet, or Philips F20T12/CW, 20 watt for visible) placed 6 cm apart. The cuvettes were positioned such that their two clear sides were facing the two lamps.
(§5) Cuvettes were spaced ˜2 cm from each other, and no closer than 15 cm from the ends of the lamps. This positioning allowed reproducible light exposure to all cuvettes.
as §1, §2
(§6) The absorbance readings at 400 nm due to light exposure were plotted against time of exposure and the resulting correlation used to determine the UV and VIS light exposure. A change in absorbance reading of 0.45 was assumed equivalent to 200 watt hours/square meter for the UV light and a change of 0.51 was assumed equivalent to 1.2 million lux hours for the VIS light. The UV lamps provided 6.62 watts/square meter and the VIS lamps provided 7180 lux.
Aqueous solutions were prepared containing 473 mM iohexol (180 mg 1/mL), 10 mM tromethamine HCl buffer (TRIS), with and without various SCDs. The pH of the solutions was adjusted to 7.4 with 0.1N hydrochloric acid. Aliquots of the solutions were irradiated with ultraviolet (UV) light for 18 hours (119 watt hours/m^2) and other aliquots irradiated with visible (VIS) light for 90 hours (0.65 million lux hours). The solutions were then processed, analyzed and reported as in Example 2, with the exception that the iohexol peak was measured at 300 nm for both samples and standards. Results of the study are presented in the table below along with the SCD used. The SCDs included derivatives prepared from alpha, beta, and gamma CD to evaluate the effect of CD cavity size. Various substituents, including one derivative containing more than one type of substituent, and degrees of substitution (DS) were also evaluated.
Aqueous solutions were prepared containing 50 mM iodinated contrast agent, 10 mM tromethamine HCl buffer (TRIS), with and without sulfobutylether beta-cyclodextrin with an average degree of substitution-7 (SBE7-β-CD), or 2-hydroxypropyl beta-cyclodextrin with an average degree of substitution of ˜6.3 (HP6.3-β-CD) or ˜4.3 (HP4.3-β-CD). […]

The format of data set [3] is physicochemical. The settings on record: for Iodide formed: 50 mM agent, 10 mM TRIS. How it is done: as §1, §2, §3
Aliquots of the solutions were irradiated with visible light for 72 hours (0.52 million lux hours). Other aliquots were autoclaved for 20 minutes at 121° C., cooled to room temperature and then irradiated with ultraviolet light for 18 hours (119 watt hours/m2). The solutions were then processed, analyzed and reported as in Example 2, except that the chromatographic peaks of the contrast agents were evaluated at 300 nm for both samples and standards.
Aqueous solutions were prepared containing 50 mM iohexol, 0, 2.5, 5, 7.5, or 10 mM tromethamine HCl (TRIS) buffer, with and without 2.5 mM sulfobutylether beta-cyclodextrin with an average degree of substitution-7 (SBE7-β-CD). The pH of the solutions was adjusted to 7.4 with 0.1N hydrochloric acid and the solutions were transferred to glass vials. The vials were stoppered, crimp-capped and autoclaved for 20 minutes at 121° C. The pH of the autoclaved solutions was measured after the solutions were at room temperature.
Aliquots of the autoclaved solutions were irradiated with visible light for 72 hours (0.52 million lux hours) and other aliquots irradiated with ultraviolet light for 18 hours (119 watt hours/m2). The solutions were then processed, analyzed and reported as in Example 2, except that the chromatographic peak of the iohexol was evaluated at 300 nm for both samples and standards.
Aqueous formulations were prepared containing iodinated contrast agents at concentrations used commercially in medical procedures. Sulfobutylether-cyclodextrin, sodium salt, average degree of substitution ˜7 (SBE7CD) was added at varying agent:CD mole ratios. The formulations were placed in glass vials, sealed with rubber stoppers and aluminum crimps, and autoclaved at 121° C. for 20 minutes. […]

The nature of data set [4]: Photostability: iodide formed after UV light irradiation. Type of data set: physicochemical. The settings on record: 473 mM iohexol, 10 mM TRIS, pH 7.4, UV 18 h. How it is done:
as §4, §5, §1, §2, §6
Aqueous solutions were prepared containing 50 mM contrast agent by diluting commercially available solutions with water. Tromethamine HCl buffer (TRIS), was added to solutions as necessary to increase the TRIS content to that of the commercial product before dilution.
SCD was added to the solutions at various mole ratios and the pH of the solutions adjusted to 7.4 with 0.1N hydrochloric acid or 0.1N sodium hydroxide. The solutions were irradiated with UV light for 18 hours (119 watt hours/m^2) then processed, analyzed and reported as in Example 2. The SCDs evaluated were sulfobutyl ether beta-cyclodextrin with an average degree of substitution of 7 (SBE-704CD), and two 2-hydroxypropyl beta-cyclodextrin derivatives having 6.3 (HP-6.3n/CD) and 4.3 (HP-4.3-βCD) average degrees of substitution.
Aqueous solutions were prepared containing 50 mM contrast agent by diluting commercially available solutions with distilled water. Tromethamine HCl buffer (TRIS), was added to some solutions to increase the buffer content.
The solutions were divided and SBE-7-CD added to one aliquot at a contrast agent:SCD mole ratio of 1:1. The pH of the solutions was adjusted to 5, 6, 7, 7.4 or 8 with 0.1N hydrochloric acid or sodium hydroxide. […]

The conditions of data set [5]: contrast media solutions; cited from earlier work.
The mark [6] stands for this setting: pH 7.4, autoclaved then UV 18 h, agent:SBE7-β-CD 1:0.1.
The mark [7] stands for this setting: pH 7.4, autoclaved then UV 18 h, no SCD (1:0).

In the case of `C[C@H](O)C(=O)Nc1c(I)c(C(=O)NC(CO)CO)c(I)c(C(=O)NC(CO)CO)c1I` [Iopamidol, iopamidol], the “Iodide Formed, Autoclaved” value in data set [1] (Iopamidol 200 mg I/mL, pH 7, agent:SBE7CD 1:0.05) was 0.00338 wt %; in data set [1] (Iopamidol 200 mg I/mL, pH 7, no SCD (1:0)), 0.00347 wt %. Besides, the Iodide formed in data set [2] (agent:SBE7-β-CD 1:0.1) is given as 0.355 wt %; in data set [2] (no SCD (1:0)), 0.356 wt %; in data set [3] (setting [6]), 0.470 wt %; in data set [3] (setting [7]), 0.540 wt %; in data set [3] (pH 7.4, autoclaved then visible light, agent:SBE7-β-CD 1:0.1), 0.344 wt %; in data set [3] (pH 7.4, autoclaved then visible light, no SCD (1:0)), 0.348 wt %. The “stabilization against degradation from autoclaving+visible light irradiation” value in data set [3] is recorded as “stabilized all formulations except iopamidol”. Further, the “Iodide Formed, UV” value in data set [3] (Iopamidol 200 mg I/mL, pH 7, agent:SBE7CD 1:0.05, autoclaved then UV 24 h) is 0.145 wt %; in data set [3] (Iopamidol 200 mg I/mL, pH 7, no SCD (1:0), autoclaved then UV 24 h), 0.150 wt %. In addition, the “Iodide Formed, VIS” value was 0.0574 wt % in data set [3] (Iopamidol 200 mg I/mL, pH 7, agent:SBE7CD 1:0.05, autoclaved then VIS 72 h) and 0.0570 wt % in data set [3] (Iopamidol 200 mg I/mL, pH 7, no SCD (1:0), autoclaved then VIS 72 h).
For `CNC(=O)c1c(I)c(C(=O)NCC(=O)Nc2c(I)c(C(=O)O)c(I)c(C(=O)NCCO)c2I)c(I)c(N(C)C(C)=O)c1I` [Ioxaglate, ioxaglate], the “Iodide Formed, Autoclaved” value in data set [1] (Ioxaglate 320 mg I/mL (393 mg ioxaglate meglumine and 196 mg ioxaglate sodium), pH 7.0, no SCD (1:0)) is on record as 0.00457 wt %; in data set [1] (Ioxaglate 320 mg I/mL, pH 7.0, agent:SBE7CD 1:0.05) it was 0.00329 wt %. The Iodide formed is listed as 0.211 wt % in data set [2] (agent:SBE7-β-CD 1:0.1), 0.231 wt % in data set [2] (no SCD (1:0)), 0.332 wt % in data set [3] (setting [6]) and 0.392 wt % in data set [3] (setting [7]). Moreover, the “Iodide Formed, UV” value in data set [3] (Ioxaglate 320 mg I/mL, pH 7.0, agent:SBE7CD 1:0.05, autoclaved then UV 24 h) was 0.0845 wt %; in data set [3] (Ioxaglate 320 mg I/mL, pH 7.0, no SCD (1:0), autoclaved then UV 24 h), 0.114 wt %. Also, the “Iodide Formed, VIS” value in data set [3] (Ioxaglate 320 mg I/mL, pH 7.0, agent:SBE7CD 1:0.05, autoclaved then VIS 72 h) is listed as 0.0175 wt %; in data set [3] (Ioxaglate 320 mg I/mL, pH 7.0, no SCD (1:0), autoclaved then VIS 72 h), 0.0197 wt %.
Take “sulfobutylether 3.5-ethylether 3.5-beta-cyclodextrin [SBE-EE-βCD]”: the “I- formed, VIS” value in data set [2] (473 mM iohexol, pH 7.4, VIS 90 h, iohexol:SCD 1:0.05) stood at 0.0584 wt %. In data set [2] (473 mM iohexol, pH 7.4, VIS 90 h, iohexol:SCD 1:0.05 vs control), the “% Change in iodide degradants (Vis)” value is −5.3% (Vis). For the same compound, the “I- formed, UV” value in data set [4] (iohexol:SCD 1:0.05) was 0.0825 wt %. Further, the “% Change in iodide degradants (UV)” value in data set [4] (iohexol:SCD 1:0.05 vs control) was −22.9% (UV).
On to `CNC(=O)c1c(I)c(NC(C)=O)c(I)c(C(=O)O)c1I` [iothalamate sodium], for which the “degradation in solution after exposure to ultraviolet light” value in data set [5] is “formation of iodine and iodide ions”.
